Experimental data reported in patent US10765680B2, “Combination of a MCL-1 inhibitor and a taxane compound, uses and pharmaceutical compositions thereof” (priority 2017, dated 2020).

Key:
[1] = test system: BT-549 breast cancer cell line; experiment: 72 hours CellTiter-Glo proliferation assay, BT-549; format: cell-based; conditions: single agent, read-out: Abs IC50
Experimental: (§1) Compounds were dissolved in 100% DMSO (Sigma, Catalog # D2438-50 ML) at a stock concentration of 10 mM and stored at −20° C. until use. Compounds were arrayed in 2 ml deep 96-well plates (Greiner bio-one, catalog number 780271) serially diluted 3-fold. Compound 1 was used over a concentration range of 0.0-10.0 μM. Paclitaxel was used over a concentration range of 0.0-1.0 μM in breast cancer cells and 0.0-2.0 μM range in lung cancer cells.
(§2) All cell lines were purchased from the American Type Culture Collection and cultured according to vendor recommendations. […] All cell lines were determined to be free of mycoplasma contamination by a PCR detection assay performed at Idexx Radil (Columbia, Mo., USA) and authenticated by SNP analysis. […] Cells were expanded to T-75 flasks and assessed for viability using a Beckman-Coulter ViCell counter prior to plating. […]
(§3) Cell proliferation was measured in 72 hours CellTiter-Glo™ (CTG) assays and all results shown are the result of at least triplicate measurements. […] After 72 hours of compound treatment the effects of compounds on cell proliferation was determined using the CellTiter-Glo™ Luminescent Cell Viability Assay (Promega, Catalog # G7573). This is a homogeneous method to determine the number of viable cells in culture based on quantitation of the ATP present, which signals the presence of metabolically active cells. […]

[2] = test system: Cal-148 breast cancer cell line; experiment: 72 hours CellTiter-Glo proliferation assay, Cal-148; format: cell-based; conditions: single agent, read-out: Abs IC50
Experimental: as §1, §2, §3

[3] = test system: HCC1395 breast cancer cell line; experiment: 72 hours CellTiter-Glo proliferation assay, HCC1395; format: cell-based; conditions: single agent, read-out: Abs IC50
Experimental: as §1, §2, §3

[4] = test system: HCC1937 breast cancer cell line; experiment: 72 hours CellTiter-Glo proliferation assay, HCC1937; format: cell-based; conditions: single agent, read-out: Abs IC50
Experimental: as §1, §2, §3

[5] = test system: HCC1954 breast cancer cell line; experiment: 72 hours CellTiter-Glo proliferation assay, HCC1954; format: cell-based; conditions: single agent, read-out: Abs IC50
Experimental: as §1, §2, §3

[6] = test system: HCC38 breast cancer cell line; experiment: 72 hours CellTiter-Glo proliferation assay, HCC38; format: cell-based; conditions: single agent, read-out: Abs IC50
Experimental: as §1, §2, §3

[7] = test system: HCC70 breast cancer cell line; experiment: 72 hours CellTiter-Glo proliferation assay, HCC70; format: cell-based; conditions: single agent, read-out: Abs IC50
Experimental: as §1, §2, §3

[8] = test system: Hs 578T breast cancer cell line; experiment: 72 hours CellTiter-Glo proliferation assay, Hs 578T; format: cell-based; conditions: single agent, read-out: Abs IC50
Experimental: as §1, §2, §3

[9] = test system: MCF7 breast cancer cell line; experiment: 72 hours CellTiter-Glo proliferation assay, MCF7; format: cell-based; conditions: single agent, read-out: Abs IC50
Experimental: as §1, §2, §3

[10] = test system: MDA-MB-157 breast cancer cell line; experiment: 72 hours CellTiter-Glo proliferation assay, MDA-MB-157; format: cell-based; conditions: single agent, read-out: Abs IC50
Experimental: as §1, §2, §3

[11] = test system: MDA-MB-231 breast cancer cell line; experiment: 72 hours CellTiter-Glo proliferation assay, MDA-MB-231; format: cell-based; conditions: single agent, read-out: Abs IC50
Experimental: as §1, §2, §3

[12] = test system: MDA-MB-453 breast cancer cell line; experiment: 72 hours CellTiter-Glo proliferation assay, MDA-MB-453; format: cell-based; conditions: single agent, read-out: Abs IC50
Experimental: as §1, §2, §3

[13] = test system: MDA-MB-468 breast cancer cell line; experiment: 72 hours CellTiter-Glo proliferation assay, MDA-MB-468; format: cell-based; conditions: single agent, read-out: Abs IC50
Experimental: as §1, §2, §3

[14] = test system: SK-BR-3 breast cancer cell line; experiment: 72 hours CellTiter-Glo proliferation assay, SK-BR-3; format: cell-based; conditions: single agent, read-out: Abs IC50
Experimental: as §1, §2, §3

[15] = test system: NCI-H522 lung cancer cell line; experiment: 72 hours CellTiter-Glo proliferation assay, NCI-H522; format: cell-based; conditions: single agent, read-out: Abs IC50
Experimental: as §1, §2, §3

[16] = test system: NCI-H23 lung cancer cell line; experiment: 72 hours CellTiter-Glo proliferation assay, NCI-H23; format: cell-based; conditions: single agent, read-out: Abs IC50
Experimental: as §1, §2, §3

TNBC 110T PDX model = experiment: TNBC 110T PDX model, tumor growth and survival (Compound 1, docetaxel); format: in vivo, NOD-SCID-IL2Rγc−/− female mice; conditions: Compound 1 15 mg/kg i.v. twice weekly for six weeks
Experimental: A cohort of 40 female NSG mice was seeded with thawed single cell suspensions of early passage human breast tumors (TNBC PDX110). Briefly, 100,000 cells were resuspended in 10 μl of transplantation buffer (50% fetal calf serum, 10% of a 0.04% trypan blue solution and 40% PBS) and growth-factor-reduced Matrigel [BD] at a ratio of 3:1, and injected into the cleared mammary fat pads of 3- or 4-week-old NOD-SCID-IL2Rγc^−/− female mice. […] Once tumors reached a volume of 60-110 mm^3, mice were randomized into treatment arms and treatment commenced. Docetaxel or its vehicle was prepared by dissolving stock solution (20 mg/ml) with PBS and injected i.p. every 21 days for two treatment cycles. The duration of therapy is indicated by the bar. […] Compound 1 (15 mg/kg) or its vehicle was injected i.v. twice weekly for six weeks. Mice were sacrificed at the first measurement where tumor volume exceeded 600 mm^3, or if their health deteriorated for reasons other than disease progression or drug toxicity (censored event). n=9-10 mice per treatment group.

COc1ccccc1-c1nccc(COc2ccccc2C[C@@H](Oc2ncnc3sc(-c4ccc(F)cc4)c(-c4ccc(OCCN5CCN(C)CC5)c(Cl)c4C)c23)C(=O)O)n1 [Compound 1, (2R)-2-{[(5Sa)-5-{3-chloro-2-methyl-4-[2-(4-methylpiperazin-1-yl)ethoxy]phenyl}-6-(4-fluorophenyl)thieno[2,3-d]pyrimidin-4-yl]oxy}-3-(2-{[2-(2-methoxyphenyl)pyrimidin-4-yl]methoxy}phenyl)propanoic acid]
IC50 [1]: > 10000 nM
IC50 [2]: 1330 nM
IC50 [3]: 9920 nM
IC50 [4]: 137 nM
IC50 [5]: 158 nM
IC50 [6]: 3380 nM
IC50 [7]: 704 nM
IC50 [8]: 520 nM
IC50 [9]: 1290 nM
IC50 [10]: > 10000 nM
IC50 [11]: > 10000 nM
IC50 [12]: > 10000 nM
IC50 [13]: 9920 nM
IC50 [14]: 301 nM
IC50 [15]: 713 nM
IC50 [16]: 160 nM
inhibition of tumor growth, single agent (TNBC 110T PDX model): insufficient in inhibiting tumor growth
